Results on 6 compounds are retold here after patent publication US9902725B2, “Heterocyclic derivatives as RORgamma modulators” (GENFIT, priority 2014, dated 2018).

The nature of data set [1]: Microsomal stability, human microsomes (CEREP). In kind it is in vitro ADME. Conditions: 0.1 μM, 0.1 mg/mL microsomal protein. As to the method:
(§1) All the assays were conducted at CEREP (CEREP, France and USA). Metabolic compound stability was tested in human (CEREP, Ref 607) and mouse (CEREP, Ref: 806) microsomes. Inhibition of human drug-metabolizing cytochromes P450 was tested on the five most commonly responsible enzymes of metabolism of xenobiotics, CYP1A2 (CEREP, Ref 389), CYP2C9 (CEREP, Ref 412), CYP2C19 (CEREP, Ref 390), CYP2D6 (CEREP, Ref 1338) and CYP3A4 (CEREP, Ref 391).
(§2) Briefly, the standard conditions for CEREP's stability assays include incubation of test compound at 0.1 μM with human or mouse microsomes for 60 minutes in duplicate. The protein concentration of microsomes is 0.1 mg/mL. The parent compound is detected by HPLC-MS/MS analysis. The quantity of the parent compound that remains intact upon 60 minutes of microsome exposure (% remaining) is calculated by comparing the peak area of the parent compound at 60 minutes of exposure to the time zero.

A short description of data set [2]: Microsomal stability, mouse microsomes (CEREP). In kind it is in vitro ADME. To be noted: 0.1 μM, 0.1 mg/mL microsomal protein. As for the experimental part:
as §1, §2

In another data set the target is T1, CYP1A2 (Homo sapiens, UniProt P05177).
T1 sequence (P05177 1-516): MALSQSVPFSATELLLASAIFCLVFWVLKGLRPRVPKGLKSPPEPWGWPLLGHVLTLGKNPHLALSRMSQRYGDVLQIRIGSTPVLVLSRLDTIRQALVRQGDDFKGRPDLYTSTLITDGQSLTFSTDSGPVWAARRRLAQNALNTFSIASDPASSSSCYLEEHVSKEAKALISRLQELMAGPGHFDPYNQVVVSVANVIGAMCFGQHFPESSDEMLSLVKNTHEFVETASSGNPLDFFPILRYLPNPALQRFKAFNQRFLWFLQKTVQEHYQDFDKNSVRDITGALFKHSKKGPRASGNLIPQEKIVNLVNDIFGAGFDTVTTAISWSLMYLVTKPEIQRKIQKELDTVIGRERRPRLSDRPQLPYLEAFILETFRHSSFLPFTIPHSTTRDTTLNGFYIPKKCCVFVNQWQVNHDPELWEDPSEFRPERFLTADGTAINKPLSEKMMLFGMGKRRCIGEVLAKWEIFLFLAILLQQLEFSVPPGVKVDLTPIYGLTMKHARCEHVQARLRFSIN
Briefly: CYP inhibition CYP1A2 (CEREP). Conditions: human recombinant CYP, single concentration (typically 10 μM). In kind it is in vitro ADME. As for the experimental part: as §1
(§3) Briefly, CEREP's CYP inhibition assay uses traditional probe substrates, which are specific to individual CYP isoforms. 3-cyano-7-ethoxycoumarin is mainly catalyzed by CYP1A2 and CYP2C19, 3-[2-(N,N-diethyl-N-methylammonium)ethyl]-7-methoxy-4-methylcoumarin for CYP2C9 and CYP2D6 and finally, 7-benzyloxy-4-trifluoromethylcoumarin is pathway catalyzed predominantly by CYP3A4. The inhibition assays were performed with human recombinant CYP isoforms preparations. HPLC MS/MS methods are used to detect metabolites in these assays. Compounds were tested at single concentrations (typically 10 μM) and data were expressed as percent of control inhibition.

Another data set concerns the target CYP2C9 (Homo sapiens, UniProt P11712). Briefly: CYP inhibition CYP2C9 (CEREP). The class given is in vitro ADME. To be noted: single concentration (typically 10 μM). As for the experimental part:
as §1, §3

The target of a further data set is CYP2C19 (Homo sapiens, UniProt P33261). As to the kind of experiment: CYP inhibition CYP2C19 (CEREP). In kind it is in vitro ADME. To be noted: single concentration (typically 10 μM). As to the method:
as §1, §3

For another data set, the target named is CYP2D6 (Homo sapiens, UniProt P10635). Briefly: CYP inhibition CYP2D6 (CEREP). In kind it is in vitro ADME. To be noted: single concentration (typically 10 μM). As for the experimental part:
as §1, §3

The next data set concerns the target CYP3A4 (Homo sapiens, UniProt P08684). Briefly: CYP inhibition CYP3A4 (CEREP). The class given is in vitro ADME. To be noted: single concentration (typically 10 μM). As to the method:
as §1, §3

For a further data set, the system named is MOG-induced EAE mice. As to the kind of experiment: MOG-induced EAE in mice, clinical score. In kind it is in vivo. As for the experimental part: 8-10 week old, male C57BL/6 mice were purchased from Janvier Lab (St Berthevin, France) and housed in a specific pathogen free (SPF) animal facility for one week before the start of the studies. Peptide antigen MOG35-55 (Myelin Oligodendrocyte Glycoprotein) ([…], SEQ ID NO:1, Polypeptide group, France) was dissolved in PBS and emulsified with an equal volume of Complete Freund's Adjuvant (CFA) containing 5 mg/mL of mycobacteria and administrated by subcutaneous injection at the dorsal flanks on day 0 at 200 μg/mouse. To ensure induction of reliable EAE, 200 ng of Bordetella pertussis toxin (Sigma) was given via intraperitoneal injection at day 0 and 2 (Cua, Sherlock et al. 2003; Zhang, Gran et al. 2003). Animals were treated with drug beginning 2 days before peptide injection. Animals were randomized into groups for treatment by weight, so that the average weight of each group was similar. The groups were segregated by cage. Compounds according to the invention were suspended in Carboxymethyl Cellulose (CMC) 1% (Sigma) and Tween80 0.1% (Sigma) by sonication and animals were dosed daily by gavage with 10 mL/kg body weight. The daily dose of Cpd. 1 was 30 mg/kg and vidofludimus (reference compound) at 60 mg/kg in protocol 1 to assess IL-17 A and IL-17F secretion from splenocytes ex vivo. In protocol 2, mice were treated with Cpd. 1 at 3 and 10 mg/Kg or T4 compound at 1 and 10 mg/kg daily by gavage to assess the clinical score. Clinical assessment of EAE was performed daily according to the following criteria: 0) no disease, 1) limp tail, 2) weak/partially paralyzed hind legs, 3) completely paralyzed hind legs, 4) complete hind and partial front leg paralysis, and 5) complete paralysis/death. For Cytokine quantifications, mice were euthanized 20 days after EAE induction. Spleen-isolated cells were collected and adjusted to 2×10^6 cells/mL. Cells were cultured in complete RPMI medium (RPMI supplemented with 10% of fetal calf serum, 1% glutamine, and 1% penicillin/streptomycin). Spleen cells were stimulated with MOG (20 μg/mL) (Polypeptide group, France). Cytokine levels were evaluated 48 h later by ELISA (R&D Systems Europe) or HTRF (CisBio, France) in culture supernatants using IL-17A and IL-17-F according to the manufacturer's protocols. The statistical significance was based on Student's t test (p<0.05, unpaired test).

The test system of the next data set is multiple sclerosis model. Conditions: administered by injection; cited from earlier work.
The subject of another data set is psoriasis model. Conditions: administered by injection; cited from earlier work.
The test system of data set [3] is refractory Crohn diseased patients. Conditions: phase IIb; cited from earlier work.

Chain of CYP3A4 (P08684 whole entry): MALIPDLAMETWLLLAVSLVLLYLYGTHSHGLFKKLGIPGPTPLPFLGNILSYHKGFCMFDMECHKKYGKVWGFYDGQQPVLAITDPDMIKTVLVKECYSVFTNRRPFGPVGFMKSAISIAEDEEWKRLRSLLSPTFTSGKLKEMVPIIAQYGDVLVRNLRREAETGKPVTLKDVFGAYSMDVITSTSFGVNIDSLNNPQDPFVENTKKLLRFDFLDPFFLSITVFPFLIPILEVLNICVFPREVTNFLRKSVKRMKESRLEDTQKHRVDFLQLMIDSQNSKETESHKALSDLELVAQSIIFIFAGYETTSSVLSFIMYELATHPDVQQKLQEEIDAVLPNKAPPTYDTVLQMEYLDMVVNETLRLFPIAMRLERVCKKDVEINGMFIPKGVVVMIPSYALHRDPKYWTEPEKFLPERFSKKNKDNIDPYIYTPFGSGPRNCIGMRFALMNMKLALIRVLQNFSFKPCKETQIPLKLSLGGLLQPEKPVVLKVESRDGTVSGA
Chain of CYP2C19 (P33261 whole entry): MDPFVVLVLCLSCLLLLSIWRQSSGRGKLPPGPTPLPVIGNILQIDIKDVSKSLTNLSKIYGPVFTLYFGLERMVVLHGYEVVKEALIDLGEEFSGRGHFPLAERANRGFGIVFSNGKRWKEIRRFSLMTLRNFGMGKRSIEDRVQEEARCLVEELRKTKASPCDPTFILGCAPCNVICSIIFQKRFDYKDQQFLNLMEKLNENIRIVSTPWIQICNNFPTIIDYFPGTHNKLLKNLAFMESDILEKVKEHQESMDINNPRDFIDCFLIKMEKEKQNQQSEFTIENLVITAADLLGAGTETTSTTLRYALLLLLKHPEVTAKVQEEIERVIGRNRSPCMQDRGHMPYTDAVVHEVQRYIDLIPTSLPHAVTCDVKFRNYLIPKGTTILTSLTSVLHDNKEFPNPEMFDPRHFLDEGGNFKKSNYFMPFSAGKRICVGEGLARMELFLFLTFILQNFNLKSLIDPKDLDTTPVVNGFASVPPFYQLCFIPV
Chain of CYP2C9 (P11712 whole entry): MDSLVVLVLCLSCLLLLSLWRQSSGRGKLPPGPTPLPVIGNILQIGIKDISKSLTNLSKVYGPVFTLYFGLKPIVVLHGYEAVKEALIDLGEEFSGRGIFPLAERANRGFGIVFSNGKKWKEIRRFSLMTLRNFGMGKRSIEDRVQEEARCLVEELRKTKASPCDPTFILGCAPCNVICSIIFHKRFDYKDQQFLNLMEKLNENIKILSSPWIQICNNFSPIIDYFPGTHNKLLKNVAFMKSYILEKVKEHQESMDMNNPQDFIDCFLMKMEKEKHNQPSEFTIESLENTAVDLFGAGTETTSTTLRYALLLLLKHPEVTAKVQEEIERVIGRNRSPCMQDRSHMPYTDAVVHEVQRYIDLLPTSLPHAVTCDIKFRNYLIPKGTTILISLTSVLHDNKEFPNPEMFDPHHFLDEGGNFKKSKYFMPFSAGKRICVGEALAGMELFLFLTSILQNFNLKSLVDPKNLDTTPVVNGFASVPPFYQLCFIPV
Chain of CYP2D6 (P10635 whole entry): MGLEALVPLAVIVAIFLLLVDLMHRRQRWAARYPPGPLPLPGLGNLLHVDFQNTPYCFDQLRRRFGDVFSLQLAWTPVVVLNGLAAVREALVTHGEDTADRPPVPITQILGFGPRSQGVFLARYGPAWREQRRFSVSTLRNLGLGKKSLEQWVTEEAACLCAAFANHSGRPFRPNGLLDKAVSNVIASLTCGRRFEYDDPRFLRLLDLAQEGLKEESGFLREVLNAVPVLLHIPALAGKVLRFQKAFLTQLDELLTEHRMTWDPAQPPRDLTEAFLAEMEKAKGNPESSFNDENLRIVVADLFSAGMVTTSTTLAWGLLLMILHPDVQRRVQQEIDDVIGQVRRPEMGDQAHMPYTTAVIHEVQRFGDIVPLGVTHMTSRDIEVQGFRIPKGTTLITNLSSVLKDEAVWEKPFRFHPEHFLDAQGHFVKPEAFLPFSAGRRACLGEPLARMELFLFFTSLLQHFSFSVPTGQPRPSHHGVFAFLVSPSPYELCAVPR

Regarding `Cc1ccc(C(NC(=O)Cc2ccc3oc(C(O)c4c(C)noc4C)cc3c2)c2ccccc2)c(C)c1` (single isomer, unassigned) [Cpd. T-3, 2-(2-(hydroxy(3,5-dimethylisoxazol-4-yl)methyl)benzofuran-5-yl)-N-((2,4-dimethylphenyl)(phenyl)methyl)acetamide, reference compound], the “Human microsomes (% Cpd. remaining at 60 min)” value in [1] is 0%. Also, in data set [2], the “Mouse microsomes (% Cpd. remaining at 60 min)” value is 0%. On CYP1A2, the “CYP 1A2 (% inhibition of Control)” value is −5%. For the same compound, the “CYP 2C9 (% inhibition of Control)” value on CYP2C9 (human recombinant CYP) is 75%. The “CYP 2C19 (% inhibition of Control)” value at CYP2C19 (human recombinant CYP) came out at 92%. Also, the “CYP 2D6 (% inhibition of Control)” value at CYP2D6 (human recombinant CYP) is reported as 19%. Also, at CYP3A4 (human recombinant CYP), the “CYP 3A4 (% inhibition of Control)” value turned out to be 93%.
Usually inhibition stands for the change of the read-out against control, counted positive when it falls. Regarding `Cc1ccc(C(NC(=O)Cc2ccc3oc(C(O)c4c(C)noc4C)cc3c2)c2ccccc2)c(C)c1` (single isomer, unassigned) [Cpd. T-4, 2-(2-(hydroxy(3,5-dimethylisoxazol-4-yl)methyl)benzofuran-5-yl)-N-((2,4-dimethylphenyl)(phenyl)methyl)acetamide, reference compound], the “Human microsomes (% Cpd. remaining at 60 min)” value in data set [1] is 0%. The “Mouse microsomes (% Cpd. remaining at 60 min)” value in [2] worked out at 0%. Moreover, the “CYP 1A2 (% inhibition of Control)” value on CYP1A2 is −3%. For the same compound, the inhibition at 10 µM on CYP2C9 (human, recombinant CYP2C9, human recombinant CYP, read-out: CYP 2C9 (% inhibition of Control)) stood at 73%; at CYP2C19 (human, recombinant CYP2C19, probe 3-cyano-7-ethoxycoumarin, read-out: CYP 2C19 (% inhibition of Control)), 85%; at CYP2D6 (human, recombinant CYP2D6, human recombinant CYP, read-out: CYP 2D6 (% inhibition of Control)), 31%; at CYP3A4 (human, recombinant CYP3A4, probe 7-benzyloxy-4-trifluoromethylcoumarin, read-out: CYP 3A4 (% inhibition of Control)), 82%. For the same compound, in the data set on MOG-induced EAE mice (daily by gavage, Cpd. 1 at 3 and 10 mg/Kg, T4 compound at 1 and 10 mg/kg), the EAE clinical score result is recorded as “wasn't effective”.
For the compound `CC(=O)Nc1nc(C)c(S(=O)(=O)Nc2ccc(C(O)(C(F)(F)F)C(F)(F)F)cc2)s1` [SR1001], the “efficacy in multiple sclerosis model” value in the data set with multiple sclerosis model is listed as “efficacious”.
For the compound `Cc1ccc([C@@H](NC(=O)Cc2ccc3oc([C@@H](O)c4c(C)noc4C)cc3c2)c2ccccc2)c(C)c1` [TMP778], in the data set with psoriasis model, the “efficacy in psoriasis model” value was “efficacious”.
For `Cc1ccc(C(NC(=O)Cc2ccc3oc(C(O)c4c(C)noc4C)cc3c2)c2ccccc2)c(C)c1` (centres unmarked) [compound T, 2-(2-(hydroxy(3,5-dimethylisoxazol-4-yl)methyl)benzofuran-5-yl)-N-((2,4-dimethylphenyl)(phenyl)methyl)acetamide, reference compound], the “onset of EAE” value in the data set on MOG-induced EAE mice (administered p/os (orally) for 20 days) is recorded as “ineffective”. Further, the “efficacy in psoriasis model” value in the data set with psoriasis model is given as “efficacious”.
Take “Ustekinumab: anti-p40 monoclonal antibody that targets Th17 and Th1 through IL-23 and IL-12”: the “clinical efficacy in refractory Crohn diseased patients” value in [3] was “clinical (phase IIb) efficacy”.
